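These data come from cells grown in 96-well plates and exposed to compound for 48 hours at five concentrations. GI50 is the concentration that inhibits growth by half.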 The source made the active and inactive calls. No stated cut-off is given here; in the data, active = GI50 up to about 1.1 µM and inactive = higher.
Key:
Test in all cases: NCI tumour cell line growth inhibition, 48 h
[1] = tested on: T47D
[2] = tested on: BT-549
[3] = tested on: DMS-114
[4] = tested on: DLD-1
[5] = tested on: XF498
[6] = tested on: KM-20L2
[7] = tested on: LXFL 529
[8] = tested on: HOP-18

| SMILES | GI50 [1] | GI50 [2] | other results |
| --- | --- | --- | --- |
| O=c1cc(N2CCCC2)[nH]c(=O)n1-c1ccc(Cl)cc1 | > 100 µM (inactive) | > 100 µM (inactive) | – |
| CCn1c(CCCc2nc3c(=O)n(C)c(=O)n(C)c3[nH]2)nc2c1c(=O)n(C)c(=O)n2C | > 100 µM (inactive) | > 100 µM (inactive) | – |
| O=S(=O)(c1ccc(Br)cc1)N1CCN(S(=O)(=O)c2ccc(Br)cc2)CC1 | > 100 µM (inactive) | > 100 µM (inactive) | – |
| C=C1C(=O)[C@@]23CC[C@@H]4[C@@]5(C)CCC[C@@]4(OC5=O)[C@@]2(C)CC[C@@H]1C3 | 4.89 µM (inactive) | 1.3 µM (inactive) | – |
| Cc1c2n(c3ccccc13)CC1C2N(C)OC1(C)C (stereo not drawn) | – | – | GI50 [3]: > 100 µM (inactive); GI50 [4]: > 100 µM (inactive); GI50 [5]: > 100 µM (inactive); GI50 [6]: > 100 µM (inactive) |
| C/C(=N\Nc1cc(CN2CCCC2)c(-c2ccc(Cl)cc2)nn1)C(=O)O | > 100 µM (inactive) | > 100 µM (inactive) | – |
| COC(=O)N/N=C(\C)CC(=O)Nc1cccc([N+](=O)[O-])c1 | – | – | GI50 [3]: > 100 µM (inactive); GI50 [4]: > 100 µM (inactive); GI50 [5]: > 100 µM (inactive); GI50 [6]: > 100 µM (inactive); GI50 [7]: > 100 µM (inactive) |
| CCN1CC2=C(N=c3s/c(=C\c4ccc(Cl)cc4)c(=O)n3C2c2ccc(Cl)cc2)/C(=C/c2ccc(Cl)cc2)C1 (stereo not drawn) | – | 26.4 µM (inactive) | – |
| COc1cc2cc(C(=O)N3C[C@H](CCl)c4c3cc(N)c3ccccc43)[nH]c2c(OC)c1OC | < 0.005 µM (active) | 1.38 µM (inactive) | – |
| C/C(Nc1ccc(F)cc1)=C1/CCOC1=O | 63.2 µM (inactive) | > 100 µM (inactive) | – |
| CCOC(=O)C1(c2ccccc2)CCCNCC1 (stereo not drawn) | – | – | GI50 [8]: > 100 µM (inactive); GI50 [4]: 58.5 µM (inactive); GI50 [6]: > 100 µM (inactive); GI50 [7]: > 100 µM (inactive) |
| CC1=N/C(=C\c2cccc([N+](=O)[O-])c2)C(=O)O1 | – | – | GI50 [8]: > 100 µM (inactive); GI50 [3]: > 100 µM (inactive); GI50 [4]: > 100 µM (inactive); GI50 [6]: > 100 µM (inactive); GI50 [7]: > 100 µM (inactive) |
| CC[C@]12C=CCN3CCC4(c5cc(/N=N/c6ccccc6)c(OC)cc5N(C)[C@H]4[C@@](O)(C(=O)OC)[C@@H]1OC(C)=O)[C@@H]32 (stereo partly drawn) | – | 17.1 µM (inactive) | – |
| O=c1ccc(=O)c2c1c1[nH]c3ccccc3c1c1c(=O)c3ccccc3c(=O)c21 | > 10 µM (inactive) | – | – |
| CC1(C)OC2[C@@H](CO[C@@]3([C@@H](O)CCO)OC(C)(C)O[C@@H]23)O1 (stereo partly drawn) | > 100 µM (inactive) | > 100 µM (inactive) | – |
| O=C(O)c1cc(/N=C/c2ccccc2O)cc(C(=O)O)c1 | > 100 µM (inactive) | > 100 µM (inactive) | – |
| N#CC(C(=O)C(=O)NCCCNC(=O)C(=O)C(C#N)c1ccccc1)c1ccccc1 (stereo not drawn) | – | – | GI50 [8]: > 100 µM (inactive); GI50 [3]: > 100 µM (inactive); GI50 [4]: > 100 µM (inactive); GI50 [6]: > 100 µM (inactive); GI50 [7]: > 100 µM (inactive) |
| COC(=O)C1(Cc2ccccc2)Cc2ccccc2C1O (stereo not drawn) | 43.3 µM (inactive) | > 100 µM (inactive) | – |
| c1ccc(COC[C@H]2C3OCC([C@H](OCc4ccccc4)[C@H]3OCc3ccccc3)N2Cc2ccccc2)cc1 (stereo partly drawn) | 13.6 µM (inactive) | > 53.3 µM (inactive) | – |
| COc1cc2c(cc1C)NC(=O)/C2=C\c1ccncc1 | 3.81 µM (inactive) | – | – |
| O=C(O)C1C2CCC(O2)C1C(=O)Nc1cccc2cccnc12 (stereo not drawn) | > 100 µM (inactive) | > 100 µM (inactive) | – |
| COc1ccccc1OC(=O)/C=C/c1ccccc1 | > 100 µM (inactive) | > 100 µM (inactive) | – |
| CC(C)(C)OC(=O)NCCNCCNc1ccccc1 | 85.5 µM (inactive) | > 100 µM (inactive) | – |
| Cc1ccc(S(=O)(=O)C2c3nc4ccccc4cc3-c3nc4ccccc4nc32)cc1 (stereo not drawn) | – | – | GI50 [3]: > 100 µM (inactive); GI50 [4]: > 100 µM (inactive); GI50 [5]: > 100 µM (inactive); GI50 [6]: > 100 µM (inactive); GI50 [7]: > 100 µM (inactive) |
| C/C=C/[C@@]1(OC(=O)c2ccccc2)C[C@@H]2CCCC[C@@H]21 | 18.6 µM (inactive) | 14.9 µM (inactive) | – |
| CCCCCNc1nonc1N | > 100 µM (inactive) | – | – |
| Cn1c2ccccc2c(=O)c2cccc(C(=O)NCC(=O)O)c21 | > 100 µM (inactive) | > 100 µM (inactive) | – |
| O=C(/C=C/c1ccccc1)CCN1CCCCC1 | 35.5 µM (inactive) | 47.1 µM (inactive) | – |
| NC(=S)N/N=C1\C(=O)N(c2cccc([N+](=O)[O-])c2)C(=O)C1C(=O)Nc1cccc([N+](=O)[O-])c1 (stereo not drawn) | – | – | GI50 [8]: 65.3 µM (inactive); GI50 [3]: > 100 µM (inactive); GI50 [4]: > 100 µM (inactive); GI50 [6]: > 100 µM (inactive); GI50 [7]: > 100 µM (inactive) |
| CC1=NN(c2cccc(Cl)c2)C2(SCC(=O)N2c2nc3ccccc3s2)/C1=C\c1ccc(N(C)C)cc1 (stereo not drawn) | 34.8 µM (inactive) | – | – |

Source: ChEMBL document CHEMBL1201862, “PubChem BioAssay data set” (2004)
